Assay [1] addresses T1, human bradykinin 1 receptor (B1R) (Homo sapiens, UniProt P46663).
T1 construct: expressed in transfected cells; host or cells: CHO K1 cells
T1 sequence (P46663 1-353): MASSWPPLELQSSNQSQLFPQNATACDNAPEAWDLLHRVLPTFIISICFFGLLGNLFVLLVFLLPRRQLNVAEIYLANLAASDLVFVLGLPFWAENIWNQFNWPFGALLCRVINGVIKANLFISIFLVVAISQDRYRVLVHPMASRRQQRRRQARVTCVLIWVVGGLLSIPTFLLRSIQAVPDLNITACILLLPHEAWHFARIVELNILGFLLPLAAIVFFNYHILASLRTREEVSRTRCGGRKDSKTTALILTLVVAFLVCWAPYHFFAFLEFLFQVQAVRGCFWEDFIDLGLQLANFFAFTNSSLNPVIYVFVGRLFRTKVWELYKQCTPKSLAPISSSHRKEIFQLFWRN
In words: Functional investigation on the human bradykinin 1 receptor (B1R), Ca2+ FLIPR assay in CHO K1 hB1R cells. Type of assay: cell-based. Particulars: CHO-K1, B1R antagonism human; test substance 10 μM; Ca2+ FLIPR, CHO K1 hB1R cells; read-out: B1R Ant. h [10 μM] % Inhibition. In outline: (§1)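 Stably transfected CHO K1 cells loaded with Fluo-4; FLIPR Ca2+ fluorescence peak (ex 488/em 540 nm). Compound added first (agonism vs Lys-Des-Arg9-bradykinin ≥50 nM human, Des-Arg9-bradykinin 10 μM rat), then after 10-20 min agonist at EC80; antagonism as % inhibition, IC50 from concentration series, n=2-3, N≥2.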

In assay [2] the target is T2, bradykinin 1 receptor (B1R) of the rat (Rattus norvegicus, UniProt P97583).
T2 construct: expressed in transfected cells; host or cells: CHO K1 cells
T2 sequence (P97583 1-337): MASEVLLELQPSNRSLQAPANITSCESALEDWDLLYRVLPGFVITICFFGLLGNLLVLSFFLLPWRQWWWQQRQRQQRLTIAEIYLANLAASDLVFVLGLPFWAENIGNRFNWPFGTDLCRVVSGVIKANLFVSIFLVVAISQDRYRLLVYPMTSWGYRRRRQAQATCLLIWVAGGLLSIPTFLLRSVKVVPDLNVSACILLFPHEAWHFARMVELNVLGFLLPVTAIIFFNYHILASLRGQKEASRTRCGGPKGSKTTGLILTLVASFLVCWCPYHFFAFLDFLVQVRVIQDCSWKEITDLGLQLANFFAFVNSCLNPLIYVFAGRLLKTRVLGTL
As to the kind of experiment: Functional investigation on the rat bradykinin 1 receptor (B1R), Ca2+ FLIPR assay in CHO K1 rB1R cells. Type of assay: cell-based. To be noted: CHO-K1, B1R antagonism rat; test substance 10 μM; Ca2+ FLIPR, CHO K1 rB1R cells; read-out: B1R Ant. r [10 μM] % Inhibition. Put shortly: as §1

For 21 compounds, inhibition results are on record in patent US8106055B2, “Substituted amide compounds” (Gruenenthal GmbH, priority 2007, dated 2012).

Usually inhibition stands for the drop in the measured response relative to a control, in per cent.

Consider `Cc1ccc(S(=O)(=O)N2CCC(OCC(=O)NC3CCC(C(c4cccs4)N(C)C)CC3)C2)cc1` (stereo not drawn) [Example 156, N-(4-((dimethylamino)(thiophen-2-yl)methyl)cyclohexyl)-2-(1-tosylpyrrolidin-3-yloxy)acetamide], for which the inhibition at 10 µM in assay [1] worked out at 5%; in assay [2], 20%.

`Cc1ccc(S(=O)(=O)N(C)CCOCC(=O)NCC2CCC(C(c3ccccc3)N(C)C)CC2)cc1` (stereo not drawn) [Example 157, N-((4-((dimethylamino) (phenyl)methyl)cyclohexyl)methyl)-2-(2-(N,4-dimethylphenylsulfonamido)ethoxy)acetamide]: the inhibition at 10 µM is 5% in assay [1] and -1% in assay [2].

In the case of `CN(C)C(c1cccc(F)c1)C1CCC(CNC(=O)COCCN(C)S(=O)(=O)c2ccc(Cl)cc2)CC1` (stereo not drawn) [Example 158, 2-(2-(4-chloro-N-methylphenylsulfonamido)ethoxy)-N-((4-((dimethylamino)(3-fluorophenyl)methyl)cyclohexyl)methyl)acetamide], the inhibition at 10 µM in assay [1] amounted to 20%; in assay [2] it was 5%.

In the case of `CN(C)C(c1cccs1)C1CCC(NC(=O)COCCN(Cc2ccccc2)S(=O)(=O)c2ccccc2)CC1` (stereo not drawn) [Example 161, 2-(2-(N-benzylphenylsulfonamido)ethoxy)-N-(4-((dimethylamino)(thiophen-2-yl)methyl)cyclohexyl)acetamide], the inhibition at 10 µM in assay [1] was found to be 1%; in assay [2] it was 3%.

As to `COc1ccc(S(=O)(=O)N2CCCC2COCC(=O)NC2CCC(C(c3cccs3)N(C)C)CC2)cc1` (stereo not drawn) [Example 162, N-(4-((dimethylamino)(thiophen-2-yl)methyl)cyclohexyl)-2-((1-(4-methoxyphenylsulfonyl)pyrrolidin-2-yl)methoxy)acetamide], the inhibition at 10 µM in assay [1] is -5%; in assay [2], 21%.

On to `COc1ccc(S(=O)(=O)N2Cc3ccccc3CC2COCC(=O)NCC2CCC(C(c3cccc(F)c3)N(C)C)CC2)cc1` (stereo not drawn) [Example 163, N-((4-((dimethylamino)(3-fluorophenyl)methyl)cyclohexyl)methyl)-2-((2-(4-methoxyphenylsulfonyl)-1,2,3,4-tetrahydroisoquinolin-3-yl)methoxy)acetamide], for which the inhibition at 10 µM amounted to 40% in assay [1] and 36% in assay [2].

Turning to `CN(C)C(c1cccc(F)c1)C1CCC(CNC(=O)COC2CCCCC2N(C)S(=O)(=O)c2ccc(Cl)c(Cl)c2)CC1` (stereo not drawn) [Example 164, 2-(2-(3,4-dichloro-N-methylphenylsulfonamido)cyclohexyloxy)-N-((4-((dimethylamino)(3-fluorophenyl)methyl)cyclohexyl)methyl)acetamide], the results for the inhibition at 10 µM in assay [1] and in assay [2] were 14% and 17%, respectively.

Regarding `COc1cc(C)c(S(=O)(=O)N2CCC(OCC(=O)NC3CCC(C(c4ccccc4)N(C)C)CC3)C2)c(C)c1` (stereo not drawn) [Example 165, N-(4-((dimethylamino)(phenyl)methyl)cyclohexyl)-2-(1-(4-methoxy-2,6-dimethylphenylsulfonyl)pyrrolidin-3-yloxy)acetamide], the inhibition at 10 µM in assay [1] was determined as 98%; in assay [2] it was 38%.

For `Cc1ccc(S(=O)(=O)N2CCC(OCC(=O)NC3CCC(C(c4cccc(F)c4)N(C)C)CC3)C2)cc1` (stereo not drawn) [Example 167, N-(4-((dimethylamino)(3-fluorophenyl)methyl)cyclohexyl)-2-(1-tosylpyrrolidin-3-yloxy)acetamide], the inhibition at 10 µM in assay [1] is -12%; in assay [2] it was 40%.

Regarding `COc1ccc(S(=O)(=O)N(C)CCOCC(=O)NCC2CCC(C(c3ccccc3)N(C)C)CC2)cc1OC` (stereo not drawn) [Example 169, 2-(2-(3,4-dimethoxy-N-methylphenylsulfonamido)ethoxy)-N-((4-((dimethylamino)(phenyl)methyl)cyclohexyl)methyl)acetamide], the inhibition at 10 µM in assay [1] is -4%; in assay [2], -15%.

On to `CN(C)C(c1cccc(F)c1)C1CCC(CNC(=O)COC2CCN(S(=O)(=O)c3cccc(C(F)(F)F)c3)C2)CC1` (stereo not drawn) [Example 170, N-((4-((dimethylamino)(3-fluorophenyl)methyl)cyclohexyl)methyl)-2-(1-(3-(trifluoromethyl)phenylsulfonyl)pyrrolidin-3-yloxy)acetamide], for which the inhibition at 10 µM in assay [1] worked out at 8%; in assay [2], 38%.

On to `CN(C)C(c1cccc(F)c1)C1CCC(NC(=O)COCCN(C)S(=O)(=O)c2c(Cl)cccc2Cl)CC1` (stereo not drawn) [Example 171, 2-(2-(2,6-dichloro-N-methylphenylsulfonamido)ethoxy)-N-(4-((dimethylamino)(3-fluorophenyl)methyl)cyclohexyl)acetamide], for which the inhibition at 10 µM worked out at 68% in assay [1] and 43% in assay [2].

On to `CN(C)C(c1cccc(F)c1)C1CCC(NC(=O)COC2CCN(S(=O)(=O)c3ccc(F)cc3)C2)CC1` (stereo not drawn) [Example 172, N-(4-((dimethylamino)(3-fluorophenyl)methyl)cyclohexyl)-2-(1-(4-fluorophenylsulfonyl)pyrrolidin-3-yloxy)acetamide], for which the inhibition at 10 µM was -12% in assay [1] and 18% in assay [2].

For the compound `COc1cc(C)c(S(=O)(=O)N2CCC(OCC(=O)NCC3CCC(C(c4ccccc4)N(C)C)CC3)C2)c(C)c1` (stereo not drawn) [Example 173, N-((4-((dimethylamino)(phenyl)methyl)cyclohexyl)methyl)-2-(1-(4-methoxy-2,6-dimethylphenylsulfonyl)pyrrolidin-3-yloxy)acetamide], the inhibition at 10 µM in assay [1] turned out to be 94%; in assay [2], 104%.

As for `CN(C)C(c1cccc(F)c1)C1CCC(CCNC(=O)COCCN(C)S(=O)(=O)c2c(Cl)cc(Cl)cc2Cl)CC1` (stereo not drawn) [Example 174, N-(2-(4-((dimethylamino)(3-fluorophenyl)methyl)cyclohexyl)ethyl)-2-(2-(2,4,6-trichloro-N-methylphenylsulfonamido)ethoxy)acetamide], the inhibition at 10 µM amounted to 103% in assay [1] and 44% in assay [2].

For the compound `CN(C)C(c1cccc(F)c1)C1CCC(NC(=O)COCCN(Cc2ccccc2)S(=O)(=O)c2ccccc2)CC1` (stereo not drawn) [Example 175, 2-(2-(N-benzylphenylsulfonamido)ethoxy)-N-(4-((dimethylamino)(3-fluorophenyl)methyl)cyclohexyl)acetamide], the inhibition at 10 µM in assay [1] is -6%; in assay [2], 5%.

Turning to `CCN(CCOCC(=O)NC1CCC(C(c2cccc(F)c2)N(C)C)CC1)S(=O)(=O)c1c(C)cc(OC)c(C)c1C` (stereo not drawn) [Example 176, N-(4-((dimethylamino)(3-fluorophenyl)methyl)cyclohexyl)-2-(2-(N-ethyl-4-methoxy-2,3,6-trimethylphenylsulfonamido)ethoxy)acetamide], the inhibition at 10 µM is 64% in assay [1] and 47% in assay [2].

As for `COc1cc(C)c(S(=O)(=O)N2CCC(OCC(=O)NCCC3CCC(C(c4cccs4)N(C)C)CC3)CC2)c(C)c1C` (stereo not drawn) [Example 177, N-(2-(4-((dimethylamino)(thiophen-2-yl)methyl)cyclohexyl)ethyl)-2-(1-(4-methoxy-2,3,6-trimethylphenylsulfonyl)piperidin-4-yloxy)acetamide], the figures for the inhibition at 10 µM in assay [1] and in assay [2] were 10% and 45%, respectively.

For `COc1cc(C)c(S(=O)(=O)N2CCC(CCOCC(=O)NC3CCC(C(c4ccc(F)cc4)N(C)C)CC3)CC2)c(C)c1C` (stereo not drawn) [Example 178, N-(4-((dimethylamino)(4-fluorophenyl)methyl)cyclohexyl)-2-(2-(1-(4-methoxy-2,3,6-trimethylphenylsulfonyl)piperidin-4-yl)ethoxy)acetamide], the inhibition at 10 µM came out at 24% in assay [1] and 12% in assay [2].

Turning to `COc1ccc(S(=O)(=O)N2CCCCC2COCC(=O)NCC2CCC(C(c3cccc(F)c3)N(C)C)CC2)cc1` (stereo not drawn) [Example 179, N-((4-((dimethylamino)(3-fluorophenyl)methyl)cyclohexyl)methyl)-2-((1-(4-methoxyphenylsulfonyl)piperidin-2-yl)methoxy)acetamide], the inhibition at 10 µM in assay [1] was 65%; in assay [2], 67%.

Take `COc1ccc(S(=O)(=O)N2CCCCC2COCC(=O)NCCC2CCC(C(c3cccc(F)c3)N(C)C)CC2)cc1` (stereo not drawn) [Example 180, N-(2-(4-((dimethylamino)(3-fluorophenyl)methyl)cyclohexyl)ethyl)-2-((1-(4-methoxyphenylsulfonyl)piperidin-2-yl)methoxy)acetamide]: the inhibition at 10 µM in assay [1] was 62%; in assay [2] it was 68%.
